# Values quoted from earlier work, collected in article PMC12285096, “Tirzepatide mitigates Stroke-Induced Blood-Brain barrier disruption by modulating Claudin-1 and C/EBP-α pathways” (Molecular Medicine, 2025).
# Settings: cited from earlier work; for BBB penetration (Kp, brain): limited BBB penetration of GLP-1 analogs, ref Rhea et al. [2024], Lee et al. [2023], Hunter and Hölscher [2012], Secher et al. [2014]
Substance,"Brain-to-plasma ratio (Kp, brain) (in vivo)","BBB penetration (Kp, brain)"
liraglutide,0.03 ± 0.01,0.02–0.05
semaglutide,–,0.02–0.05
